The values below come from ChEMBL document CHEMBL3877336, “Structure-Based Design of ASK1 Inhibitors as Potential Agents for Heart Failure” (ACS Med Chem Lett, 2017).

In general, IC50 refers to the midpoint of a concentration-inhibition curve. What is called EC50 is the midpoint of the concentration-response curve. A word on the Papp A→B: it is the apparent permeability from the apical to the basolateral side of a cell layer. Usually Papp B→A stands for the apparent permeability from the basolateral to the apical side of a cell layer.

In data set [1] the target is T1, Mitogen-activated protein kinase kinase kinase 5 (Homo sapiens, UniProt Q99683).
T1 sequence (Q99683 whole entry): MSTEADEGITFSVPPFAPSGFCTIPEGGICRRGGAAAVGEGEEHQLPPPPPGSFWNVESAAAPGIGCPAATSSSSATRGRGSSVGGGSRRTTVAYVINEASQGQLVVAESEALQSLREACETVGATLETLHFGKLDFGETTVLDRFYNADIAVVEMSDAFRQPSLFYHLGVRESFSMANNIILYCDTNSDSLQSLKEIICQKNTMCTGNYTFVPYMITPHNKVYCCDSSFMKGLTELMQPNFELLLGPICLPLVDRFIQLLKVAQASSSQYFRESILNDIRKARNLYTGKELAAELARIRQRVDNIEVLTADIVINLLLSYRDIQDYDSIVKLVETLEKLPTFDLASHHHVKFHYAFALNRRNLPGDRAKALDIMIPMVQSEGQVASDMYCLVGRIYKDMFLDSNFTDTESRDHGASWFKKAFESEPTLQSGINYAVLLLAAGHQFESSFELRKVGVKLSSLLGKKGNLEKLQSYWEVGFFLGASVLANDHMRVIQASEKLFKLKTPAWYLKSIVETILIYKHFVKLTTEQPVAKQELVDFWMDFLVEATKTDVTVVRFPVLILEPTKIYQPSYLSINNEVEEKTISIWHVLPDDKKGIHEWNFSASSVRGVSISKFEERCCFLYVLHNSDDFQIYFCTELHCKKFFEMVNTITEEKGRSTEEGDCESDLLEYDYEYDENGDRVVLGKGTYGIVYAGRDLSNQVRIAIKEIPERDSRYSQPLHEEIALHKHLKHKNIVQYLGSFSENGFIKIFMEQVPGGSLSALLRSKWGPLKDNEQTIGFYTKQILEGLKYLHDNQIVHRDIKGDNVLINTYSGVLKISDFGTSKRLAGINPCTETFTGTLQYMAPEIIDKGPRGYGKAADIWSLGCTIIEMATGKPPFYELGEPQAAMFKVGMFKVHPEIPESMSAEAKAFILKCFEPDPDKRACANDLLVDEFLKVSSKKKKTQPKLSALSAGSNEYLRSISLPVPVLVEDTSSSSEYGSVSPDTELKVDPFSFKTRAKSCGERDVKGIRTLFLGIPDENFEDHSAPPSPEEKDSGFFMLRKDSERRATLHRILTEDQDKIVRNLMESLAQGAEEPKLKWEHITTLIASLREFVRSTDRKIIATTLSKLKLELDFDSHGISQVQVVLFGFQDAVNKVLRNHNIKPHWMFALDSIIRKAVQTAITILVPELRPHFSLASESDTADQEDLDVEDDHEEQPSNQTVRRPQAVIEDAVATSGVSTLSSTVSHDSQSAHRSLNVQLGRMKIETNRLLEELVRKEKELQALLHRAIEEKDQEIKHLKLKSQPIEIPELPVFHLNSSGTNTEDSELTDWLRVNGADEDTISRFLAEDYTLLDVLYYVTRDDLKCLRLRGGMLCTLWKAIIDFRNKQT
Kind of data set: Inhibition of recombinant human N-terminal GST-tagged ASK1 catalytic domain (654 to 971 residues) expressed in baculovirus infected sf21 cells using STK3 as substrate after 60 mins by HTRF assay. In general terms: Time-resolved FRET reads energy transfer from a long-lived donor to a nearby acceptor.

The target in data set [2] is T1, Mitogen-activated protein kinase kinase kinase 5. Nature of the data set: Inhibition of human ASK1 expressed in HEK293 cells assessed as inhibition of H2O2-induced JNK phosphorylation preincubated for 30 mins followed by H2O2 addition measured after 30 mins by ELISA. It counts as cell-based. In general terms: In an ELISA, binding on a coated surface is turned into a signal by an enzyme label.

Data set [3] can be described thus: Intrinsic clearance in human liver microsomes at 1 uM up to 30 mins in presence of NADPH by UPLC-MS/MS analysis. The class given is ADME. The conditions noted are these: read-out: CLH. (Liver microsomes are a subcellular fraction often used to study metabolism.)
A short description of data set [4]: Intrinsic clearance in rat liver microsomes at 1 uM up to 30 mins in presence of NADPH by UPLC-MS/MS analysis. It counts as ADME. The conditions noted are these: read-out: CLH.
The subject of data set [5] is MDR1 (human). Nature of the data set: Apparent permeability from apical to basolateral side in pig LLC-PK1 cells expressing human MDR1 at 10 uM after 2 hrs by LC-MS/MS analysis. The class given is ADME, cell-based, Sus scrofa.
For data set [6], the system named is MDR1 (human). Nature of the data set: Apparent permeability from basolateral to apical side in pig LLC-PK1 cells expressing human MDR1 at 10 uM after 2 hrs by LC-MS/MS analysis. The class given is ADME, cell-based, Sus scrofa.
Data set [7] is described as follows: Solubility of the compound in pH 1 solution at 155 uM after overnight incubation by HPLC method. It counts as physicochemical. The following applies: buffer, pH 1, 155 µM.
Data set [8] relates to Rattus norvegicus. Nature of the data set: Anti-ischemic activity in Langendorff perfused Sprague-Dawley rat heart assessed as reduction in infarct size at 2.25 mg/kg, po administered via gavage administered 1 hr prior to ischemia/reperfusion relative to control. It counts as functional. The arrangement: scale not given: the % may be the effect or the level left.
Data set [9] has as its system Rattus norvegicus. Kind of data set: Anti-ischemic activity in Langendorff perfused Sprague-Dawley rat heart assessed as reduction in infarct size at 2.25 mg/kg, po administered via gavage 8 hrs prior to ischemia/reperfusion relative to control. The class given is functional. Set-up: scale not given: the % may be the effect or the level left.

SMILES strings stand for the structures.

In the case of `CC[C@@H](C)n1cnnc1-c1cccc(N2Cc3ccccc3C2=O)n1`, the IC50 in data set [1] was 0.0501 µM.
With `COCCOc1ccc2c(c1)C(=O)N(c1cccc(-c3nncn3C(C)C)n1)C2`, in data set [1], the concentration for half-maximal inhibition (IC50) is 0.00794 µM. Moreover, in [2], the EC50 was 0.0158 µM.
Take `CC[C@H](C)n1cnnc1-c1cccc(N2Cc3ccccc3C2=O)n1`: the IC50 in data set [1] was 0.02 µM.
Same read-out and setting: for `C[C@H](CO)n1cnnc1-c1cccc(N2Cc3ccccc3C2=O)n1` the value was 0.01 µM.
Still for that read-out and setting: for `CC(CC#N)n1cnnc1-c1cccc(N2Cc3ccccc3C2=O)n1` (stereo not drawn) the value was 0.02 µM.
`C[C@@H](CO)n1cnnc1-c1cccc(N2Cc3ccccc3C2=O)n1`: in data set [1], the IC50 was 0.0316 µM.
Regarding `CC(C)Oc1ccc2c(c1)C(=O)N(c1cccc(-c3nncn3[C@H](C)CO)n1)C2`, in data set [1], the IC50 is 0.00501 µM. In addition, the EC50 in data set [2] is 0.00631 µM. Moreover, the CLint scaled at 1 µM in [3] is under 0.498 L/h/kg; in data set [4], under 0.996 L/h/kg. For the same compound, the Papp A→B at 2 h, 10 µM in [5] was determined as 54.9 nm/s. The Papp B→A at 2 h, 10 µM in data set [6] is 262 nm/s. Further, the solubility result in data set [7] was “Soluble”. For the same compound, the Activity in [8] was found to be 42%; in data set [9] it was 24%.
Consider `CC(C)n1cnnc1-c1cccc(N2Cc3ccc(OC[C@@H]4CN(C)CCO4)cc3C2=O)n1`, for which the IC50 in [1] is 0.00631 µM. Moreover, the EC50 in data set [2] was 0.00631 µM.
For `O=C1c2ccccc2CN1c1cccc(-c2nncn2CC2CCO2)n1` (stereo not drawn), the half-maximal inhibitory concentration (IC50) in data set [1] is 0.794 µM.
For `CC(CF)n1cnnc1-c1cccc(N2Cc3ccccc3C2=O)n1` (stereo not drawn), the IC50 in data set [1] is 0.0126 µM.
On the same count and under the same terms, the result for `CC(C)n1cnnc1-c1cccc(N2Cc3ccccc3C2=O)n1` reads 0.0126 µM.
Consider `CC(CCO)n1cnnc1-c1cccc(N2Cc3ccccc3C2=O)n1` (stereo not drawn), for which, in [1], the IC50 is 0.0398 µM.
Still for that read-out and setting: for `Cc1ccc(C(=O)Nc2cccc(-c3nncn3C(C)C)n2)c(F)c1` the value was 0.0501 µM.
For the compound `COCCOc1ccc2c(c1)C(=O)N(c1cccc(-c3nncn3[C@H](C)CO)n1)C2`, in [1], the IC50 was 0.00794 µM. Further, the EC50 in data set [2] is 0.0126 µM.
Take `Cc1cc(F)c(C(=O)Nc2ccccn2)cc1-n1cnc(C2CC2)c1`: the IC50 in data set [1] is 6.31 µM.
With `CC(C)Oc1ccc2c(c1)C(=O)N(c1cccc(-c3nncn3C(C)C)n1)C2`, the IC50 in data set [1] was 0.0158 µM. Moreover, the EC50 in data set [2] was 0.0316 µM.
